Broadly, the MBC is the lowest tested concentration that kills the bacteria rather than only halting them. Usually MIC stands for the lowest concentration that inhibits growth of the organism. In general, inhibition refers to the percentage by which the read-out fell short of the control. For orientation: IC50 means the concentration that inhibits the measured activity by half. In general, viability refers to a read-out of living cells in per cent, often relative to untreated cells.

Molecules are shown by their SMILES. In brackets after ≈: the same amount, converted by molar mass. Several values for one entry are separate records, joined by “and”; a condition that tells them apart may be missing. Equal values may be shown once. Read-outs that look alike come from different tables or passages of the source.

Data set [1] relates to Epstein–Barr virus early antigen. Also noted: method as in PMID 16204964, PMID 14745168. The conditions noted are these: cited from earlier work.
In the next data set the test system is Propionibacterium acnes. In words: Anti-bacterial assay (growth inhibition, MIC/MBC by broth microdilution). Format: cell-based. The method in brief:
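P. acnes NBRC 107605 grown in GAM broth 30 h at 37 °C, then used at 10^5 CFU/mL. Compounds in DMSO incubated with bacteria 30 h at 37 °C; growth read at 630 nm. MIC and MBC by broth microdilution.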

The subject of data set [2] is RBL-2H3 cells. In words: β-hexosaminidase release from IgE-stimulated RBL-2H3 mast cells. It counts as cell-based, rat. The conditions noted are these: for IC50: IgE-stimulated RBL-2H3 cells, read-out: IC50 (β-hexosaminidase release). The method in brief: (§1)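 IgE-sensitized RBL-2H3 cells (0.5 μg/mL anti-DNP IgE, 24 h) treated with sample 30 min in Tyrode buffer, then challenged 1 h with 50 μg/mL DNP-BSA. Released β-hexosaminidase measured with 2 mM p-nitrophenyl-N-acetyl-β-glucosaminide, 3 h, A405; viability by parallel MTT.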

The nature of data set [3]: Cell viability of RBL-2H3 cells (parallel MTT). It counts as cell-based, rat. The conditions noted are these: rat. The method in brief:
as §1

For data set [4], the system named is B16 melanoma cells. Briefly: Anti-melanogenesis assay (melanin content). It counts as cell-based, mouse. The method in brief: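 B16 cells treated with samples in DMSO (<0.2%) for 48 h, then re-dosed in fresh medium for a further 24 h; arbutin served as positive control. Melanin content read at 405 nm and viability by MTT at 570 nm.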
For data set [5], the system named is B16 melanoma cells. In words: Cell viability of B16 melanoma cells (MTT). The conditions noted are these: for Inhibition rate (100% − cell viability): B16 cells.
Another data set in a line: in vitro. The note with it: mouse.
The subject of data set [6] is inflammation induced by 12-O-tetradecanoylphorbol-13-acetate (TPA). Also noted: method as in PMID 16204964, PMID 14745168. The conditions noted are these: mice; cited from earlier work.
For another data set, the system named is NHDF cells. Briefly: Skin type I collagen synthesis promoting assay (ELISA, with MTT). It counts as cell-based, human. The note with it: fold of control. (ELISA stands for enzyme-linked immunosorbent assay.)
Data set [7] concerns RBL-2H3 cells. In words: Cell viability of RBL-2H3 cells (parallel MTT). It counts as cell-based, rat. The note with it: 25 μg/ml, RBL-2H3 cells. The essentials: as §1

For `C[C@@H]1CC[C@]2(C(=O)O)CC[C@]3(C)C(=CC[C@@H]4[C@@]5(C)C[C@@H](O)[C@@H](O)C(C)(C)[C@@H]5CC[C@]43C)[C@@H]2[C@]1(C)O` [Compound 12, euscaphic acid], the “inhibitory activity against TPA-induced Epstein–Barr virus early antigen activation (in words)” value in data set [1] is on record as “significant inhibitory activity”. In addition, the MBC in the data set with Propionibacterium acnes (Cutibacterium acnes, P. acnes, broth microdilution, read-out: MBC) is 50 µg/mL (≈ 102 µM). The MIC in the data set on Propionibacterium acnes (Cutibacterium acnes, P. acnes, broth microdilution, read-out: MIC) is 50 µg/mL (≈ 102 µM); with Propionibacterium acnes (P. acnes, broth microdilution), 50/50 μg/mL. Moreover, the inhibition at 100 µg/mL in the data set on Propionibacterium acnes (Cutibacterium acnes, concentration 100 μg/mL, read-out: Inhibition Rate (P. acnes growth)) was 98.5 ± 1.3%. In the data set with Propionibacterium acnes (at their maximum solubility), the “activity against P. acnes (in words)” value is on record as “active”. Besides, the inhibition at 1 µg/mL in the data set on RBL-2H3 cells [2] (Rattus norvegicus, RBL-2H3, 1 μg/mL, read-out: Inhibition Rate (β-hexosaminidase release)) is 10.4 ± 10.8%. For the same compound, the inhibition at 5 µg/mL in the data set on RBL-2H3 cells [2] (Rattus norvegicus, RBL-2H3, 5 μg/mL, read-out: Inhibition Rate (β-hexosaminidase release)) came out at 37.7 ± 3.9%; in the data set on B16 melanoma cells [4] (Mus musculus, 5 μg/ml, B16 cells, read-out: Inhibition rate (100% − melanin synthesis)), 0%. Further, the inhibition at 12.5 µg/mL with RBL-2H3 cells [2] (Rattus norvegicus, RBL-2H3, 12.5 μg/mL, read-out: Inhibition Rate (β-hexosaminidase release)) was 67 ± 1.8%. The inhibition at 25 µg/mL in the data set on RBL-2H3 cells [2] (Rattus norvegicus, RBL-2H3, 25 μg/mL, read-out: Inhibition Rate (β-hexosaminidase release)) came to 74.5 ± 1.3%. Further, the half-maximal inhibitory concentration (IC50) in the data set with RBL-2H3 cells [2] (Rattus norvegicus) came to 15.8 µM; in the data set with B16 melanoma cells [4] (Mus musculus, B16 melanoma cells, read-out: IC50 (melanin synthesis)), 34 µM; in the data set with B16 melanoma cells [4] (Mus musculus, B16 melanoma cells, read-out: IC50 melanin), 16.6 µg/mL. For the same compound, the viability at 25 μg/ml in data set [3] is 93.9 ± 7.3%. Further, the “S.I (selectivity index, CC50 value/IC50 value)” value in the data set with B16 melanoma cells [4] (B16 melanoma cells) stood at 0.7. Besides, the inhibition at 2.5 µg/mL with B16 melanoma cells [4] (Mus musculus, 2.5 μg/ml, B16 cells, read-out: Inhibition rate (100% − melanin synthesis)) came to 0%. Further, the inhibition at 10 µg/mL in the data set on B16 melanoma cells [4] (Mus musculus, 10 μg/ml, B16 cells, read-out: Inhibition rate (100% − melanin synthesis)) worked out at 35 ± 3.6%. For the same compound, the inhibition at 20 µg/mL in the data set on B16 melanoma cells [4] (Mus musculus, 20 μg/ml, B16 cells, read-out: Inhibition rate (100% − melanin synthesis)) worked out at 58.8%. Also, the “Inhibition rate (100% − cell viability)” value in the data set on B16 melanoma cells [5] (2.5 μg/ml) was 0.0 ± 6.9%; in the data set on B16 melanoma cells [5] (5 μg/ml), 0.0 ± 6.6%; with B16 melanoma cells [5] (10 μg/ml), 44.9 ± 2.7%; in the data set on B16 melanoma cells [5] (20 μg/ml) it was 91.1 ± 1.0%. The CC50 at 72 h in “in vitro” is 12.5 µg/mL and 25.6 µM. Further, in data set [6], the “inhibitory activity against TPA-induced inflammation (in words)” value is “significant inhibitory activity”.

For the compound `C[C@H]1[C@H](C)CC[C@]2(C(=O)O)CC[C@]3(C)C(=CC[C@@H]4[C@@]5(C)C[C@@H](O)[C@@H](O)C(C)(C)[C@@H]5CC[C@]43C)[C@H]12` [Compound 9, 3-epicorosolic acid], in [1], the “inhibitory activity against TPA-induced Epstein–Barr virus early antigen activation (in words)” value was “significant inhibitory activity”. For the same compound, the “CP/CV value (collagen production %/cell viability %)” value in the data set on NHDF cells (1 μg/mL) is listed as 1.2; in the data set on NHDF cells (5 μg/mL) it was 1.3. For the same compound, the “Inhibition Rate (P. acnes growth)” value with Propionibacterium acnes (concentration 100 μg/mL) is on record as “– (no inhibition)”. In addition, the “Inhibition Rate (β-hexosaminidase release)” value came out at 8.9 ± 5.2% in the data set on RBL-2H3 cells [2] (1 μg/mL), 33.7 ± 6.9% in the data set with RBL-2H3 cells [2] (5 μg/mL), 50.7 ± 3.2 % in the data set with RBL-2H3 cells [2] (12.5 μg/mL) and 54.4 ± 4.9 % with RBL-2H3 cells [2] (25 μg/mL). For the same compound, the IC50 in the data set on RBL-2H3 cells [2] was 14.2 µM; in the data set on B16 melanoma cells [4] (B16 melanoma cells, read-out: IC50 (melanin synthesis)) it was above 42.3 µM. For the same compound, the Cell viability with RBL-2H3 cells [7] amounted to 98.0 ± 7.7%. The “Inhibition rate (100% − melanin synthesis)” value is 1.0 ± 5.4% in the data set with B16 melanoma cells [4] (2.5 μg/ml, B16 cells); 0.0 ± 5.3% with B16 melanoma cells [4] (5 μg/ml, B16 cells); 7.8± 0.9% in the data set with B16 melanoma cells [4] (20 μg/ml, B16 cells). Further, the IC50 melanin in the data set with B16 melanoma cells [4] (B16 melanoma cells) was above 20.0 µg/mL. The “Inhibition rate (100% − cell viability)” value with B16 melanoma cells [5] (2.5 μg/ml) is reported as 0.0 ± 10.3%; in the data set with B16 melanoma cells [5] (5 μg/ml), 0.0 ± 11.8%; with B16 melanoma cells [5] (10 μg/ml), 3.4 ± 4.1%; in the data set with B16 melanoma cells [5] (20 μg/ml), 14.8 ± 4.1%. The same compound came in with a CC50 cell viability with B16 melanoma cells [5] (B16 melanoma cells, MTT) above 20.0 µg/mL. Besides, in the data set with B16 melanoma cells [5] (read-out: CC50 (cell viability), B16 melanoma cells, MTT), the CC50 was above 42.3 µM. For the same compound, the “inhibitory activity against TPA-induced inflammation (in words)” value in data set [6] is on record as “significant inhibitory activity”.

These data come from publication PMC5454942, “The Potential of Triterpenoids from Loquat Leaves (Eriobotrya japonica) for Prevention and Treatment of Skin Disorder” (International Journal of Molecular Sciences, 2017).
